Laboratory results: patent US20090104235A1, “Method for Producing of a Preparation of a Solid Dmso-Containing Silicone Oil Emulsion for the Binding of Reactive Oxygen Compounds in Human and Animal Bodies” (priority 2005, published 2009)

What was measured:
[1] = Case report: morbus Bechterev patient with chronic pain, daily suppository application; assay type: in vivo, human
Text: […]: morbus Bechterev for over 10 years. Treatment of chronic pain with Celebrex.

[2] = among humans; N. M. Luerry et al. 1984; cited from earlier work
[3] = DMSO application quantity needed for the same effect; comparison with pure DMSO; assay type: in vivo, human; details: dose of pure DMSO, without silicone emulsion
Experimental: With standard preparations for the treatment of chronic diseases among humans, DMSO can be prescribed in a dose of up to 1 g/kg of body weight. A toxic effect only occurs among humans when over 1 g/kg DMSO is supplied (N. M. Luerry et al. Drug. Intell. Clin. Pharm. 18, 591 [1984]). Due to the silicone emulsion according to the invention, the same effect is achieved among humans with an application quantity of DMSO of 1 mg/kg of body weight. With the silicone emulsion according to the invention, the quantity of DMSO to be applied is therefore reduced to 1/1000th of the application quantity used to date.

Row | SMILES | side effects ([1]; morbus Bechterev patient) | influence on disease progression ([1]; treatment of chronic pain, morbus Bechterev for over 10 years) | dose at which a toxic effect occurs [2] | pain-relieving and inflammation-restricting effect [3]
1 | Cc1ccc(-c2cc(C(F)(F)F)nn2-c2ccc(S(N)(=O)=O)cc2)cc1 [Celebrex] | clearly cause difficulty to the patient | can also not be significantly influenced | – | –
2 | C[S+](C)[O-] [DMSO, dimethylsulphoxide] | – | – | over 1 g/kg | does not lead to the high pain-relieving and inflammation-restricting effect
